Reference: PMC12649225, “Machine Learning-Identified Potent Antimicrobial Peptides Against Multidrug-Resistant Bacteria and Skin Infections” (Antibiotics, 2025)
Residues, ends and D or L forms follow the SMILES beside them.

Experiments:
A. baumannii RUH875 [1] = assay: SYTOX Green membrane permeabilization assay; format: cell-based, Acinetobacter baumannii; settings: RPMI, 1 μM SYTOX Green; for SYTOX fluorescence intensity, A. baumannii: 1- and 2-fold the LC99.9_2h concentrations, over 90 min; for Concentrations inducing membrane permeabilization / SYTOX uptake: 90 min, 37 °C
Description: Control samples were exposed to RPMI only. As a positive control, heat-killed bacteria were incubated at 95 °C for 10 min to induce maximum membrane permeabilization. Fluorescence (excitation: 485 nm, emission: 520 nm) was monitored every minute for 90 min at 37 °C using a […] plate reader (Ortenberg, Germany), with peptides and positive controls added after the third cycle. Background fluorescence (SYTOX Green alone) was subtracted from all values. All assays were performed in triplicate and repeated twice independently.

[2] = test system: S. aureus JAR060131 biofilm; assay: Biofilm killing; format: cell-based, Staphylococcus aureus; settings: for Concentration giving ≥3-log reduction of S. aureus biofilm CFU within 2 h: 2 h treatment in PBS; for Concentration giving ≥3-log reduction of S. aureus biofilm CFU within 24 h: 24 h treatment, >3 log for BP2 and pexiganan
Description: (§1) Mid-logarithmic phase cultures of A. baumannii RUH875 or S. aureus JAR060131 were diluted to 1 × 10^8 CFU/mL in RPMI supplemented with 1% glucose. A total of 100 μL of each suspension was added to flat-bottom polystyrene 96-well microplates (Costar) and incubated under static conditions at 37 °C in a humidified atmosphere for 24 h to allow biofilm formation. After 24 h, planktonic bacteria were removed, and wells were carefully washed with 100 μL PBS [60]. […] Control samples were exposed to 100 μL of PBS only.
(§2) Biofilms were treated at 37 °C for either 2 or 24 h. […] Plates were sealed and sonicated for 5 min (Elmasonic, Singen, Germany; 45 kHz) at room temperature to dislodge adherent bacteria. […] Quantitative cultures were performed by plating serial 10-fold dilutions on sheep blood agar, and results were expressed as log10 CFU per well. The lower limit of detection was three CFU. Each condition was tested in six replicates.

[3] = test system: A. baumannii RUH875 biofilm; assay: Biofilm killing; format: cell-based, Acinetobacter baumannii; settings: for Concentration killing ≥3 log CFU of A. baumannii biofilm within 2 h / Concentration giving complete eradication of A. baumannii biofilm, 24 h treatment: 24 h biofilm; for Concentration killing ≥3 log CFU of A. baumannii biofilm within 2 h: 2 h treatment in PBS, 1.88-120 μM, vs untreated biofilm; for Concentration giving complete eradication of A. baumannii biofilm, 24 h treatment: 24 h treatment in PBS; for A. baumannii biofilm killing, 24 h treatment (in words): up to 120 µM
Description: as §1, §2

[4] = test system: BJ human skin fibroblast cells; assay: LDH leakage assay (membrane integrity); settings: lowest concentration causing >30% LDH leakage; BJ fibroblasts; 24 h; DMEM with 2% FBS; 0.05-60 µM
Description: (§3) BJ human skin fibroblast cells (ATCC CRL-2522; RRID: CVCL_3653; LGC Standards, Germany (September 2023)) were cultured in Dulbecco’s Modified Eagle Medium (DMEM; Gibco, Waltham, MA, USA) supplemented with 10% (v/v) foetal bovine serum (FBS; Sigma-Aldrich) and 1% (v/v) penicillin/streptomycin (pen/strep; Gibco). Cell suspensions (5 × 10^5 cells/mL) were seeded into 96-well plates (100 μL/well; Thermo Scientific, Waltham, MA, USA) and allowed to adhere for 24 h. Monolayers were then exposed to two-fold serial dilutions of GDST peptides, their RI variants, and reference peptides (final concentrations: 0.05 to 60 µM) in fresh DMEM with 2% (v/v) FBS for 24 h at 37 °C in a humidified atmosphere with 5% CO2.
(§4) Cell viability and membrane integrity were assessed using the water-soluble tetrazolium salt (WST-1; Roche, Basel, Switzerland) assay and the lactate dehydrogenase (LDH; Abcam, Cambridge, UK) assay, respectively, according to manufacturer instructions. Results were expressed as percentages of metabolic activity and LDH leakage relative to untreated control cells and the positive lysis control, respectively. The cytotoxic concentration was defined as the lowest peptide concentration causing <70% metabolic activity and >30% LDH leakage. All experiments were performed in triplicate.

S. aureus JAR060131 [5] = assay: 3D human skin equivalent (HSE) infection model; format: cell-based, Staphylococcus aureus; settings: for Concentration giving significant reductions in adherent S. aureus in HSE / Concentration eradicating adherent S. aureus in HSE: adherent fraction; for Concentration giving significant reductions in adherent S. aureus in HSE: p < 0.001
Description: Human keratinocytes (Ker-CT cell line; ATCC CRL-4048; RRID: CVCL_S877; ATCC, Manassas, VA, USA (October 2017)) were used to generate human skin equivalents (HSEs) following the method described by Gent et al.. Briefly, HSEs were cultured for 12 days, after which the culture medium was replaced with antibiotic-free medium, and cells were grown for an additional two days before infection (Figure S2). On the day of infection, HSEs were inoculated with 300 µL of S. aureus JAR060131 suspension (3 × 10^5 CFU) and incubated for 1 h at 37 °C with 5% CO2. Following incubation, the bacterial suspension was removed, and HSEs were washed once with 500 µL PBS. HSEs were then treated for 4 h with PBS (control), GDST-038, GDST-045, their RI variants, or the reference peptide SAAP-148 at concentrations of 3.75, 15, and 60 μM, in triplicate. Subsequently, supernatants containing planktonic (non-adherent) bacteria were collected and kept on ice. Peptide activity was neutralized by adding SPS (final concentration: 0.025% (v/v)). Adherent bacteria within HSEs were quantified by homogenizing the tissues in 0.5 mL PBS containing 0.025% (v/v) SPS, using five zirconia beads (Ø 2 mm; BioSpec Products, Bartlesville, OK, USA) in a MagNA Lyser System (Roche) for three cycles of 30 sec at 7000 rpm, with 30 sec cooling intervals on ice. Both supernatants and homogenized fractions were serially diluted, plated on blood agar, and incubated overnight at 37 °C to determine CFU counts.

[6] = test system: BJ human skin fibroblast cells; assay: WST-1 metabolic activity assay (cell viability); settings: lowest concentration causing <70% metabolic activity (WST-1); BJ fibroblasts; 24 h; DMEM with 2% FBS; 0.05-60 µM
Description: as §3, §4

S. aureus JAR060131 [7] = assay: microbe, parasite or virus in culture; format: cell-based, Staphylococcus aureus; settings: RPMI, 18 h
Description: (§5) The potential for resistance development to GDST-038, GDST-045, and their RI variants was assessed as described by Habets and Brockhurst. Resistance development to the antibiotics rifampicin and ciprofloxacin (both from Sigma-Aldrich) was evaluated for comparison. Briefly, 10 μL of a mid-logarithmic phase culture of A. baumannii RUH875 or S. aureus JAR060131 was added to 90 μL of peptide (final concentrations: 0.23 to 120 μM) or antibiotic (final concentrations: 0.03 to 256 μg/mL) solution in RPMI, in 96-well polypropylene round-bottom plates (Costar). All incubations were performed in quadruplicate. Plates were sealed with breathable seals (Greiner) and incubated at 37 °C with shaking at 120 rpm in a humidified environment for 18 h (S. aureus) or 48 h (A. baumannii).
(§6) The minimum inhibitory concentration (MIC), defined as the lowest concentration that inhibited visible bacterial growth, was then determined. Subsequently, 2 μL from the 0.5-fold MIC condition was transferred to fresh medium containing a concentration series ranging from 0.5- to 8-fold the new MIC. This procedure was repeated over 22 consecutive passages to monitor resistance development.

A. baumannii RUH875 [8] = assay: microbe, parasite or virus in culture; format: cell-based, Acinetobacter baumannii; settings: RPMI; 48 h
Description: as §5, §6

[9] = 4 h peptide exposure, tested 3.75, 15, 60 μM

Molecule	SYTOX fluorescence intensity, A. baumannii (A. baumannii RUH875 [1])	Concentration giving ≥3-log reduction of S. aureus biofilm CFU within 2 h ([2]; 24 h biofilm) [µM]	Concentration giving complete eradication of S. aureus biofilm within 24 h ([2]; 24 h biofilm, 24 h treatment in PBS) [µM]	Concentration killing ≥3 log CFU of A. baumannii biofilm within 2 h [3] [µM]	Concentration giving complete eradication of A. baumannii biofilm, 24 h treatment [3] [µM]	Cytotoxicity LDH Leakage >30% [4] [µM]	Concentration giving significant reductions in adherent S. aureus in HSE (S. aureus JAR060131 [5]; 4 h) [µM]	Effect on non-adherent S. aureus in HSE (S. aureus JAR060131 [5]; at 15 µM and 60 µM, 4 h)	Cytotoxicity Metabolic Activity <70% [6] [µM]	Concentrations inducing membrane permeabilization / SYTOX uptake (A. baumannii RUH875 [1]) [µM]	A. baumannii biofilm killing, 24 h treatment (in words) [3]	CFU reduction of non-adherent S. aureus in HSE (S. aureus JAR060131 [5]; 15 µM, 4 h, non-adherent fraction) [log CFU]	Concentration eradicating adherent S. aureus in HSE (S. aureus JAR060131 [5]; [9]) [µM]	Concentration reducing non-adherent S. aureus to below the detection limit in HSE (S. aureus JAR060131 [5]; non-adherent fraction, 4 h peptide exposure, tested 3.75, 15, 60 μM) [µM]	MIC S. aureus at the 22nd passage (S. aureus JAR060131 [7]) [µM]	MIC S. aureus at the 1st passage (S. aureus JAR060131 [7]; median of four replicates) [µM]	S. aureus biofilm CFU reduction within 2 h ([2]; 2 h treatment, concentration not given) [log CFU]	Concentration giving ≥3-log reduction of S. aureus biofilm CFU within 24 h [2] [µM]	MIC A. baumannii, stable over 22 passages (A. baumannii RUH875 [8]) [µM]	Effect on non-adherent S. aureus in HSE (S. aureus JAR060131 [5]; at all tested concentrations (3.75 µM, 15 µM, and 60 µM), 4 h)
CC[C@@H](C)[C@@H](NC(=O)[C@@H](CC(C)C)NC(=O)[C@@H](CCCCN)NC(=O)[C@@H](CCCCN)NC(=O)[C@H](NC(=O)[C@@H](Cc1c[nH]c2ccccc12)NC(=O)[C@@H](CCCNC(=N)N)NC(=O)[C@@H](Cc1ccccc1)NC(=O)[C@@H](CC(C)C)NC(C)=O)C(C)C)C(=O)N[C@H](CCCCN)C(=O)N[C@@H](C(=O)N[C@H](Cc1c[nH]c2ccccc12)C(=O)N[C@H](CCCNC(=N)N)C(=O)N[C@H](CCCCN)C(N)=O)C(C)C [GDST-045-RI] (HELM PEPTIDE1{[ac].[dL].[dF].[dR].[dW].[dV].[dK].[dK].[dL].[dI].[dK].[dV].[dW].[dR].[dK].[am]}$$$$V2.0; N-terminus and C-terminus assumed)	fluorescence levels similar to heat-killed controls	≥ 30	120	≥ 30	120	3.75	15	significant bacterial reductions	3.75	–	–	–	–	–	–	–	–	–	–	–
Ac-LKRVWKRVFKLLKRYWRQLKKPVR-NH2 (N-terminus and C-terminus assumed) [SAAP-148, reference compound]	–	–	–	≥ 15	–	1.88	–	–	3.75	0.47 to 3.75	complete eradication	3	60	60	–	–	–	–	–	–
Ac-KRWVKIAKKWWRLL-NH2 [GDST-038]	fluorescence levels similar to heat-killed controls	≥ 60	–	120	–	3.75	–	–	3.75	0.47	did not cause significant biofilm CFU reduction	–	15	–	1.88	0.94	5.1	120	0.47	completely eradicated
CC[C@@H](C)[C@@H](NC(=O)[C@@H](C)NC(=O)[C@@H](CCCCN)NC(=O)[C@@H](CCCCN)NC(=O)[C@@H](Cc1c[nH]c2ccccc12)NC(=O)[C@@H](Cc1c[nH]c2ccccc12)NC(=O)[C@@H](CCCNC(=N)N)NC(=O)[C@@H](CC(C)C)NC(=O)[C@@H](CC(C)C)NC(C)=O)C(=O)N[C@H](CCCCN)C(=O)N[C@@H](C(=O)N[C@H](Cc1c[nH]c2ccccc12)C(=O)N[C@H](CCCNC(=N)N)C(=O)N[C@H](CCCCN)C(N)=O)C(C)C [GDST-038-RI] (HELM PEPTIDE1{[ac].[dL].[dL].[dR].[dW].[dW].[dK].[dK].[dA].[dI].[dK].[dV].[dW].[dR].[dK].[am]}$$$$V2.0; N-terminus and C-terminus assumed)	fluorescence levels similar to heat-killed controls	–	–	60	≥ 60	3.75	60	significant bacterial reductions	3.75	–	–	–	–	–	–	–	–	≥ 60	–	–
